Peptide text beside a SMILES is read from it.
Experiments:
[1] = test system: CXCR4/CXCL12 induced p-MEK; test: CXCR4/CXCL12 induced p-MEK in Jurkat cells (ELISA); type: cell-based, human; details: 5 nM CXCL12, 5 min
Procedure, shortened: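 Jurkat cells in RPMI+GlutaMax containing 10% FBS and 1% penicillin/streptomycin, fresh or conditioned, were resuspended at 2×10^6 cells/ml and […] aliquots placed in tubes. After a 5 min stimulation they were pelleted, rinsed with HBSS and lysed with PMSF and protease/phosphatase inhibitors. Phospho-MEK1 (Ser217/221) was quantified by sandwich ELISA with absorbance read at 450 nm.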

Jurkat cells = test: CXCL12 mediated cell migration, Jurkat cells; type: cell-based, human; details: 1.1 μM test article, 100 ng/ml CXCL12, 1 hour
Experimental: The assay was performed following a protocol similar to that described by Peng, et al., Mol Cancer Ther., 14480-90 (2015), incorporated herein by reference. Peptides were initially prepared as 1 mM stock in H2O and tested at a final concentration of 1.1 μM. […] Jurkat cells were resuspended in serum free media (RPMI+GlutaMax; Gibco/Thermo Fisher Scientific; Gaithersburg, Md.) containing 0.5% bovine serum albumin at density of 5×10^6 cells/ml. […] Cells (250,000 cells in 50 μl) supplemented with the appropriate treatments were seeded on to the upper chamber of a 96-well 5 μm HTS Transwell filter insert (Corning/Costar; Tewksbury, Mass.). […] Filter inserts were immediately placed on top of 96-well receiver trays and placed at 37° C. in a humidified atmosphere of 5% CO2/95% air for 1 hour. Following the 1 hour incubation period the filter inserts were carefully removed and the migration of cells across the filter into the bottom chamber (receiver wells) was determined by measuring ATP levels using Cell TiterGlo 2.0, according to manufacturer's instructions (Promega; Madison, Wis.); luminescence was measured using a Cytation 3 plate reader (BioTek; Winooski, Vt.).

human CXCR4 [2] = biological target: T1, human CXCR4 (Homo sapiens, UniProt P61073); test: CXCR4/CXCL12 binding, HTRF format, single concentration (Example 23); design: host or cells: HEK293 (Tag-lite CXCR4 cells, frozen aliquots, transient expression); details: 15 nM CXCR4R fluorescent probe, 3 hours, HEK293 Tag-lite CXCR4 cells
Procedure, shortened: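 Tag-lite CXCR4 cells were exposed to peptide at 400 nM final with 15 nM (EC80) fluorescent CXCR4 probe for 3 h at room temperature. HTRF was read, and the 665/620 nm ratio ×10,000 measured probe bound to terbium-labelled receptor.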

human CXCR4 [3] = biological target: T1, human CXCR4; test: IC50 for inhibition of CXCR4 activation, β-Arrestin recruitment (Example 22); type: cell-based; design: host or cells: C2C12 (mouse myoblast) CXCR4 β-Arrestin PathHunter cell line
Procedure, shortened: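 C2C12 cells co-expressing ProLink-tagged human CXCR4 and Enzyme Acceptor-tagged β-arrestin (PathHunter). Peptides tested in 10-point, 3-fold dilutions from 1 μM (1 μM–0.05 nM). Recruitment read by chemiluminescent enzyme-fragment complementation after 90 min incubation.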

human CXCR4 [4] = biological target: T1, human CXCR4; test: IC50 for CXCR4/CXCL12 ligand binding, HTRF format (Example 24); design: host or cells: HEK293 (Tag-lite CXCR4 cells, frozen aliquots, transient expression)
Experimental: Peptides were initially prepared as 1 mM stock in H2O. […] Following the manufacture's protocol, a frozen aliquot of Tag-lite CXCR4 cells was thawed and immediately seeded onto 384-well plates in TLB. […] The plates were covered in aluminum foil and left at room temperature for 3 hours. Following the 3 hour incubation period, the plates were removed from the incubator and fluorescence measured using a Cytation 1 plate reader using a HTRF filter cube ([…]; BioTek; Winooski, Vt.).

T1 sequence (P61073 whole entry): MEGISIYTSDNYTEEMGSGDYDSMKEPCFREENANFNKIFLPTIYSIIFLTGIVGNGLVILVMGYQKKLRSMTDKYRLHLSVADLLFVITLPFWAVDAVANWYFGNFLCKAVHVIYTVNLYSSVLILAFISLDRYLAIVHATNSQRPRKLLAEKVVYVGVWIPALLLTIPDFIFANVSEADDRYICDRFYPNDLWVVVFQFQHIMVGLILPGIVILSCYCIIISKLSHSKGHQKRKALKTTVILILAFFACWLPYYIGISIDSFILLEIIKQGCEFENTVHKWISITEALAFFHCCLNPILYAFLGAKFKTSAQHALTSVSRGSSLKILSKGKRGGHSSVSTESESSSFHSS

Compound	Percent Inhibition of CXCR4/CXCL12 Induced p-MEK (100 nM Test Article) [1]	Percent Inhibition of CXCR4/CXCL12 Induced p-MEK (1 μM Test Article) [1]	Percent Inhibition of CXCL12 Mediated Migration (1.1 μM Test Article) (Jurkat cells)	Percent Inhibition of CXCR4/CXCL12 Binding (400 nM peptide) (human CXCR4 [2])	IC50 (human CXCR4 [3])	IC50 (human CXCR4 [4])
CC(C)C[C@H](NC(=O)[C@H](CO)NC(=O)[C@H](CO)NC(=O)[C@H](CCCNC(=N)N)NC(=O)[C@@H](NC(=O)[C@H](CO)NC(=O)[C@H](Cc1c[nH]cn1)NC(=O)[C@H](Cc1c[nH]cn1)NC(=O)[C@H](Cc1ccc(O)cc1)NC(=O)[C@H](CCCNC(=N)N)NC(=O)[C@H](CCC(=O)O)NC(=O)[C@@H](N)CC(C)C)C(C)C)C(=O)N[C@@H](CCCNC(=N)N)C(=O)N1CCC[C@H]1C(=O)N[C@@H](Cc1ccccc1)C(=O)N[C@H](C(=O)N[C@@H](CCCCN)C(=O)O)[C@@H](C)O [compound 60] (H-LERYHHSVRSSLRPFTK-OH; N-terminus and C-terminus assumed)	34%	82%	33%	60%	4 nM	17 nM
CC(C)C[C@H](NC(=O)[C@@H](NC(=O)[C@H](CO)NC(=O)[C@H](CCCNC(=N)N)NC(=O)[C@@H](NC(=O)[C@H](CO)NC(=O)[C@H](Cc1c[nH]cn1)NC(=O)[C@H](Cc1c[nH]cn1)NC(=O)[C@H](Cc1ccc(O)cc1)NC(=O)[C@H](CCCNC(=N)N)NC(=O)[C@H](CCC(=O)O)NC(=O)[C@@H](N)CC(C)C)C(C)C)[C@@H](C)O)C(=O)N[C@@H](CCCNC(=N)N)C(=O)N1CCC[C@H]1C(=O)N[C@@H](Cc1ccc(O)cc1)C(=O)N[C@H](C(=O)N[C@@H](CCCCN)C(=O)O)[C@@H](C)O [compound 74] (H-LERYHHSVRSTLRPYTK-OH; N-terminus and C-terminus assumed)	48%	93%	61%	88%	5 nM	6 nM
CC(C)C[C@H](NC(=O)[C@H](CO)NC(=O)[C@H](CO)NC(=O)[C@H](CCCNC(=N)N)NC(=O)[C@@H](NC(=O)[C@H](CO)NC(=O)[C@H](Cc1c[nH]cn1)NC(=O)[C@H](Cc1c[nH]cn1)NC(=O)[C@H](Cc1ccc(O)cc1)NC(=O)[C@H](CCCNC(=N)N)NC(=O)[C@H](CCC(=O)O)NC(=O)[C@@H](N)CC(C)C)C(C)C)C(=O)N[C@@H](CCCNC(=N)N)C(=O)N1CCC[C@H]1C(=O)N[C@@H](Cc1ccc(O)cc1)C(=O)N[C@@H](CO)C(=O)N[C@@H](CCCCN)C(=O)O [compound 75] (H-LERYHHSVRSSLRPYSK-OH; N-terminus and C-terminus assumed)	60%	100%	81%	81%	4 nM	11 nM
CC(C)C[C@H](NC(=O)[C@H](CO)NC(=O)[C@H](CO)NC(=O)[C@H](CCCNC(=N)N)NC(=O)[C@@H](NC(=O)[C@H](CO)NC(=O)[C@H](Cc1c[nH]cn1)NC(=O)[C@H](Cc1c[nH]cn1)NC(=O)[C@H](Cc1ccc(O)cc1)NC(=O)[C@H](CCCNC(=N)N)NC(=O)[C@H](CCC(=O)O)NC(=O)[C@@H](N)CC(C)C)C(C)C)C(=O)N[C@@H](CCCNC(=N)N)C(=O)NCC(=O)N[C@@H](Cc1ccc(O)cc1)C(=O)N[C@H](C(=O)N[C@@H](CCCCN)C(=O)O)[C@@H](C)O [compound 80] (H-LERYHHSVRSSLRGYTK-OH; N-terminus and C-terminus assumed)	52%	96%	71%	88%	4 nM	6 nM

Source: US20220395553A1, “CXCR4 ANTAGONIST PEPTIDES” (COHBAR, INC., priority 2019, published 2022)
